Laboratory results from US6869783B1, “Method for producing chiral carboxylic acids from nitriles with the assistance of a nitrilase or microoganisms which contain a gene for the nitrilase” (BASF Aktiengesellschaft, priority 1998, dated 2005).

System: nitrilase 1650
Test: Conversion of various nitriles with nitrilase 1650 (NH4 ions in supernatant, microtiter plate)
Format: biochemical, Alcaligenes faecalis 1650
Parameters: Activity: unit not given here
Conditions: pH 7.2
[1] = 10 mM substrate, 2 g/l dry biomass, 30° C, 2 hours

Row | Molecule | % conversion | Activity | μmol/l (amount of NH4 ions produced in the supernatant) | % conversion [1] | Activity [1] | μmol/l (amount of NH4 ions produced in the supernatant) (10 mM substrate, 2 g/l dry biomass, 30° C, 2 hours, average of a microtiter plate row)
1 | CC(C#N)c1ccccc1 (stereo not shown) [Substrate 2, 2-phenylpropionitrile] | 70.2% | 4.1 | 1001.1 µmol/L |  |  | 
2 | CCC(C#N)c1ccccc1 (stereo not shown) [Substrate 3, 2-phenylbutyronitrile] | 44.3% | 0.1 | 24.4 µmol/L |  |  | 
3 | N#CCc1ccccc1 [Substrate 4, benzyl cyanide] | 100% | 9.2 | 2210.5 µmol/L |  |  | 
4 | N#CCc1ccc(Cl)cc1 [Substrate 5, 4-chlorobenzyl cyanide] | 100% | 8.9 | 2136.3 µmol/L |  |  | 
5 | N#CCc1ccc(Br)cc1 [Substrate 6, 4-bromobenzyl cyanide] | 100% | 6.2 | 1500.8 µmol/L |  |  | 
6 | CCC#N [Substrate 7, propionitrile] |  | 0.02 | 4.9 µmol/L |  |  | 
7 | CCCCC#N [Substrate 10, valeronitrile] |  | 0.47 | 113.4 µmol/L |  |  | 
8 | α-(3-heptyl)-nitro-triacetonitrile [Substrate 14] |  |  |  | 44.1% | 0.35 | 84.8 µmol/L
